Where two headings read alike, the source gives them in different places.
How the values were obtained:
Format in all cases: cell-based, human
[1] = system: foreskin cells in which senescence was induced by doxorubicin; assay: CellTiter-Glo cell viability of doxorubicin-induced senescent foreskin cells (Examples 1-2, 10, 11, 13; Tables 4, 63, 65); conditions: for removal of senescent cells: excessive concentrations (1 or 20 mM)
Protocol: After 3 days, cell viability was measured using CellTiter-Glo Luminescent Cell Viability Assay (Promega) or light microscopy.

HMGN1 [2] = assay: HMGN1 ELISA in culture medium of foreskin cells (Examples 10, 11; Tables 62, 63, 64); conditions: Homo sapiens; for activity at 30 µM: read-out: HMGN1
HMGN1 [3] = assay: HMGN1 ELISA in culture medium of A549 cancer cells (Example 12, Table 66); conditions: Homo sapiens
A549 = assay: CellTiter-Glo cell viability of senescent A549 cancer cells (Example 12, Table 67); conditions: for Survival (%): doxorubicin-induced senescent A549 cancer cells
[4] = Homo sapiens, 72 h, 1.1 μM test compound, doxorubicin-induced senescent foreskin cells, CellTiter-Glo, 0 μM = 100, read-out: Survival (%)
[5] = Homo sapiens, 72 h, 10 μM test compound, doxorubicin-induced senescent foreskin cells, CellTiter-Glo, 0 μM = 100, read-out: Survival (%)
[6] = Homo sapiens, 72 h, 30 μM test compound, doxorubicin-induced senescent foreskin cells, CellTiter-Glo, 0 μM = 100, read-out: Survival (%)
[7] = Homo sapiens, 72 h, […] test compound, doxorubicin-induced senescent foreskin cells, CellTiter-Glo, 0 μM = 100, read-out: Survival (%)
[8] = Homo sapiens, A549, doxorubicin-induced senescent A549 cancer cells, 1.1 μM test compound, CellTiter-Glo, read-out: Survival (%)
[9] = Homo sapiens, A549, doxorubicin-induced senescent A549 cancer cells, 10 μM test compound, CellTiter-Glo, read-out: Survival (%)
[10] = Homo sapiens, A549, doxorubicin-induced senescent A549 cancer cells, 30 μM test compound, CellTiter-Glo, read-out: Survival (%)
[11] = 30 μM test compound, doxorubicin-treated foreskin cells, DMSO = 100
[12] = A549, doxorubicin-induced senescent A549 cells, test compound 30 μM, ELISA, DMSO = 100, read-out: HMGN1 (amount of HMGN1 secreted in the cell culture)
[13] = Homo sapiens, 72 h, read-out: Survival (%)
[14] = A549, read-out: HMGN1 (amount of HMGN1 secreted in the cell culture)
[15] = Homo sapiens, A549, read-out: Survival (%)
[16] = […] test compound, doxorubicin-induced senescent foreskin cells, CellTiter-Glo, 0 μM = 100

| Structure (SMILES) | viability at 1.1 µM [1, 4] | viability at […] [1, 7] | viability at 1.1 µM (A549; [8]) | activity at 30 µM (HMGN1 [2]; [11]) | activity at 30 µM (HMGN1 [3]; [12]) | further results |
| --- | --- | --- | --- | --- | --- | --- |
| OO [H2O2, reference compound] |  |  |  |  |  | removal of senescent cells [1]: hardly removed |
| CC1=CCC(c2cc(C(=O)C3CCC(c4ccc(C#N)cc4)CC3)c(C)cc2C2CCC2)=C1 (stereo not drawn) [LX-305] | 101% | 97.2% | 99.2% |  |  | viability at 10 µM [1, 5]: 91%; viability at 30 µM [1, 6]: 78%; viability at 90 µM ([1]; Homo sapiens, 72 h, 90 μM test compound, doxorubicin-induced senescent foreskin cells, CellTiter-Glo, 0 μM = 100, read-out: Survival (%)): 23.2%; activity at 90 µM (HMGN1 [2]; 90 μM test compound, doxorubicin-treated foreskin cells, DMSO = 100): 199%; activity at 90 µM (HMGN1 [3]; A549, doxorubicin-induced senescent A549 cells, test compound 90 μM, ELISA, DMSO = 100, read-out: HMGN1 (amount of HMGN1 secreted in the cell culture)): 227%; viability at 10 µM (A549; [9]): 63.1%; viability at 30 µM (A549; [10]): 41%; viability at 90 µM (A549; Homo sapiens, A549, doxorubicin-induced senescent A549 cancer cells, 90 μM test compound, CellTiter-Glo, read-out: Survival (%)): 13.3% |
| O=C(O)Cn1nnc(-c2cc(N3CCC(Oc4cc(F)ccc4Br)CC3)no2)n1 [LX-309] | 52.3% | 12.5% | 100% | 283% | 254% | viability at 10 µM [1, 5]: 4.3%; viability at 10 µM (A549; [9]): 92.3%; viability at 30 µM (A549; [10]): 28.1% |
| O=C(C(C[N+](=O)[O-])=NO)N1CCN(C(c2ccc(Cl)cc2)c2ccc(Cl)cc2)CC1 [LX-403] | 36.9% | 15.5% | 40.2% | 275% | 320% | viability at 10 µM [1, 5]: 6.5%; viability at 10 µM (A549; [9]): 3.5% |
| C[C@H]1Cc2c([nH]c3ccccc23)[C@H](c2ccc([Si](C)(C)C)cc2)N1C(=O)CCl [LX-412] | 0.3% |  | 4.8% | 293% | 327% |  |
| COCC1Cc2c([nH]c3ccccc23)[C@H](c2ccc(C(=O)NC3CC3)cc2F)N1C(=O)CCl (stereo partly drawn) [LX-413] | 0.5% |  | 10.1% | 287% | 322% |  |
| C#CCOc1ccc2[nH]c3c(c2c1)C[C@H](C(=O)OC)N(C(=O)CCl)[C@H]3c1ccc(C(=O)NC23CC4CC(CC(C4)C2)C3)cc1 [LX-415] | 0.4% |  | 15.6% | 295% | 297% |  |
| COC(=O)c1ccc([C@H]2c3ccc(OC)cc3C[C@H](C(=O)OC)N2C(=O)CCl)cc1 [LX-416] | 70.3% | 29.1% | 91.4% | 293% | 315% |  |
| COC(=O)c1ccc([C@@H]2c3ccc(OC)cc3C[C@H](C(=O)OC)N2C(=O)CCl)cc1 [LX-417] | 21.8% |  | 43.5% | 294% | 347% |  |
| C[C@@H]1Cc2c([nH]c3ccccc23)[C@H](c2ccc(F)cc2)[C@H]1C#N [LX-418] | 5.1% |  | 17.7% | 284% | 286% |  |
| C#CC(=O)N1[C@@H](CCCC)Cc2c([nH]c3ncccc23)[C@@H]1c1ccc(F)cc1 [LX-419] | 10.3% |  | 25.1% | 274% | 313% |  |
| CCCC[C@H]1Cc2c([nH]c3ccccc23)[C@H](c2ccc(C(=O)NC34CC5CC(CC(C5)C3)C4)cc2)N1C(=O)CCl [LX-420] | 0% |  | 10% | 286% | 307% |  |
| C#CC(=O)N1[C@@H](CCCC)Cc2cc(CO)ccc2[C@@H]1c1ccc(NC23CC4CC(CC(C4)C2)C3)cc1 [LX-421] | 3.4% |  | 3.8% | 293% | 328% |  |
| CCCC[C@H]1Cc2c([nH]c3ccccc23)[C@H](c2ccc(NC3CCC3)cc2)N1C(=O)C#C[Si](C)(C)C [LX-422] |  |  |  |  |  | viability at 1.1 µM [1, 13]: 1.8%; activity at 30 µM (HMGN1 [2]): 294%; activity at 30 µM (HMGN1 [3]; [14]): 336%; viability at 1.1 µM (A549; [15]): 4.8% |
| Cc1onc(C(=O)N2CCN(C(c3ccc(Cl)cc3)c3ccc(OCc4cn(CCOCCNc5cccc6c5C(=O)N(C5CCC(=O)NC5=O)C6=O)nn4)cc3)CC2)c1[N+](=O)[O-] (stereo not drawn) [LX-431, 4-((2-(2-(4-((4-((4-chlorophenyl)(4-(5-methyl-4-nitroisooxazol-3-carbonyl)piperazin-1-yl)methyl)phenoxy)methyl)-1H-1,2,3-triazol-1-yl)ethoxy)ethyl)amino)-2-(2,6-dioxopiperidin-3-yl)isoindolin-1,3-dione] | 89.5% | 12.6% | 94.6% | 312% | 283% |  |
| Cc1onc(C(=O)N2CCN(C(c3ccc(Cl)cc3)c3ccc(OCc4cn(CCOCCOCCNc5cccc6c5C(=O)N(C5CCC(=O)NC5=O)C6=O)nn4)cc3)CC2)c1[N+](=O)[O-] (stereo not drawn) [LX-432, 4-((2-(2-(2-(4-((4-((4-chlorophenyl)(4-(5-methyl-4-nitroisooxazol-3-carbonyl)piperazin-1-yl)methyl)phenoxy)methyl)-1H-1,2,3-triazol-1-yl)ethoxy)ethoxy)ethyl)amino)-2-(2,6-dioxopiperidin-3-yl)isoindolin-1,3-dione] | 84.2% |  | 97.1% | 304% | 270% | Survival (%) [1, 16]: 23.8% |
| Cc1onc(C(=O)N2CCN(C(c3ccc(Cl)cc3)c3ccc(OCc4cn(CCOCCOCCNc5cccc6c5C(=O)N(C5CCC(=O)NC5=O)C6=O)nn4)cc3)CC2)c1[N+](=O)[O-] (stereo not drawn) [LX-435, 4-((2-(2-(2-(4-((4-((4-chlorophenyl)(4-(5-methyl-4-nitroisooxazol-3-carbonyl)piperazin-1-yl)methyl)phenoxy)methyl)-1H-1,2,3-triazol-1-yl)ethoxy)ethoxy)ethyl)amino)-2-(2,6-dioxopiperidin-3-yl)isoindolin-1,3-dione] |  |  |  |  |  | Survival (%) ([1]; 1.1 μM test compound, doxorubicin-induced senescent foreskin cells, CellTiter-Glo, 0 μM = 100): 89.1%; Survival (%) [1, 16]: 5.9%; Survival (%) (A549; 1.1 μM test compound, CellTiter-Glo): 92.1% |
| Cc1onc(C(=O)N2CCN(C(c3ccc(Cl)cc3)c3ccc(OCc4cn(CCOCCOCCOCCOCCNc5cccc6c5C(=O)N(C5CCC(=O)NC5=O)C6=O)nn4)cc3)CC2)c1[N+](=O)[O-] (stereo not drawn) [LX-436, 4-((14-(4-((4-((4-chlorophenyl)(4-(5-methyl-4-nitroisooxazol-3-carbonyl)piperazin-1-yl)methyl)phenoxy)methyl)-1H-1,2,3-triazol-1-yl)-3,6,9,12-tetraoxatetradecyl)amino)-2-(2,6-dioxopiperidin-3-yl)isoindolin-1,3-dione] | 84.4% | 3.8% | 99.5% | 299% | 278% |  |
| Cc1onc(C(=O)N2CCN(C(c3ccc(Cl)cc3)c3ccc(OCc4cn(CCNc5cccc6c5C(=O)N(C5CCC(=O)NC5=O)C6=O)nn4)cc3)CC2)c1[N+](=O)[O-] (stereo not drawn) [LX-437, 4-((2-(4-((4-((4-chlorophenyl)(4-(5-methyl-4-nitroisooxazol-3-carbonyl)piperazin-1-yl)methyl)phenoxy)methyl)-1H-1,2,3-triazol-1-yl)ethyl)amino)-2-(2,6-dioxopiperidin-3-yl)isoindolin-1,3-dione] | 86.2% | 10.9% | 93.6% | 309% | 301% |  |
| CN(C)CCn1cc(-c2ccc(F)cc2)c(-n2cccc2)n1 [LX-913] | 97.7% | 84.4% | 95.1% |  |  | Survival (%) ([1]; 30 μM test compound, doxorubicin-induced senescent foreskin cells, CellTiter-Glo, 0 μM = 100): 14.5%; viability at 10 µM [1, 5]: 65%; viability at 10 µM (A549; [9]): 82.6%; Survival (%) (A549; 30 μM test compound, CellTiter-Glo): 45.7%; Survival (%) (A549; 90 μM test compound, CellTiter-Glo): 1.9% |
| C=C(CN(C)C)C(=O)c1ccc2c(c1)OCO2 [LX-919] |  |  |  |  |  | activity at 30 µM (HMGN1 [2]): 321%; activity at 90 µM (HMGN1 [3]; [14]): 215% |
| COc1cc(OC)cc(N(CCNC(C)C)c2ccc3ncc(-c4cnn(C)c4)nc3c2)c1 [LX-1903, Erdafitinib, reference compound] | 73.4% | 50.3% | 93.1% |  |  | viability at 10 µM [1, 5]: 22.4%; viability at 30 µM [1, 6]: 11.8%; viability at 10 µM (A549; [9]): 12.3% |
| CCCC\C=C/C=C/C=C\CCCCCCCC(=O)O [LX-2707, Punicic acid] |  |  |  |  |  | viability at 1.1 µM [1, 13]: 95.1%; viability at 10 µM [1, 13]: 64.8%; viability at 30 µM [1, 13]: 29%; viability at 1.1 µM (A549; [15]): 95.1%; viability at 10 µM (A549; [15]): 64.8%; viability at 30 µM (A549; [15]): 29% |
| CC(=O)N[C@@H](CS)C(=O)O [NAC, N-acetyl cysteine, reference compound] |  |  |  |  |  | removal of senescent cells [1]: hardly removed |

From patent US20250108036A1, “COMPOSITIONS FOR REMOVING SENESCENT CELLS AND USES THEREOF” (LIFECEUTIX CO., LTD., priority 2021, published 2025)
